Data: patent publication US20120046363A1, “DOCOSAHEXAENOIC ACID FOR THE TREATMENT OF HEART FAILURE” (University of Maryland, Baltimore, priority 2009, published 2012)

Key:
[1] = system: isolated cardiac mitochondria; assay: Cardiac mitochondrial phospholipid fatty acid composition by gas chromatography; type: in vivo, male Wistar rats; conditions: Series 1, 8 weeks diet, mean ± SEM; for Mitochondrial phospholipid C16:0: n = 7-8/group; for Mitochondrial phospholipid C20:3n6 / Mitochondrial phospholipid C20:5n3: BQL in control; for Mitochondrial phospholipid C22:6n3: DHA; for Mitochondrial phospholipid C20:5n3: EPA; for Mitochondrial phospholipid C20:4n6: arachidonic acid (ARA)
Method: (§1) Experimental Design: The animal protocol was conducted according to the Guideline for the Care and Use of Laboratory Animals (NIH publication 85-23) and was approved by the University of Maryland School of Medicine Institutional Animal Care and Use Committee. Investigators were blinded to treatment when measurements were performed. The animals were maintained on a reverse 12-h light-dark cycle and all procedures were performed in the fed state between 3 and 6 h from the start of the dark phase. Two series of experiments were performed. In the initial studies (Series 1) male Wistar rats weighing 190-200 g were fed a standard low fat diet (CTRL) or modified standard diet containing DHA or EPA at 2.5% of total caloric intake, which corresponds to a human intake of approximately 5.5 g/day (calculated assuming an energy intake of 2000 kcal/day and 9 kcal/g of fat). The rats were maintained on the diet for 8 weeks. Following dietary treatment, rats were anesthetized with isoflurane, blood was drawn, and the heart was harvested for biochemical analysis and mitochondrial isolation. Plasma from these animals was analyzed for free fatty acids and triglyceride levels, and cardiac mitochondria for respiration, Ca^2+ retention capacity (an index of MPTP opening), VDAC and cyclophilin D, and membrane phospholipid composition as described below. Following completion of Series 1, a second series of animal studies (Series 2) were performed to assess mitochondrial swelling using a light scattering assay, and the effects of different respiratory substrates on Ca^2+ retention capacity in mitochondria from control and DHA supplemented rats. Animals were treated for 10 weeks and were fed either CTRL or DHA (2.5% of total caloric intake).
(§2) Mitochondrial Preparation: Mitochondria were isolated as previously described^228. LV tissue (400-500 mg) was minced and homogenized in 1:10 cold modified Chappel-Perry buffer (100 mM KCl, 50 mM MOPS, 5 mM MgSO4, 1 mM ATP, 1 mM EGTA, 2 mg/ml BSA), and the homogenates were centrifuged at 500×g. Subsequent centrifugation allowed for separation and purification of the subsarcolemmal mitochondria. The concentration of mitochondrial protein was measured by the Lowry method using bovine serum albumin as a standard.
(§3) Membrane Lipid Composition: Cardiac phospholipid fatty acid composition was assessed in a subset of animals from Series 1 (n=7-9/group) on isolated cardiac mitochondria homogenates by gas chromatography with a flame ionization detector according to a modification of the transesterification method as previously described^228. CL composition was assessed on isolated cardiac mitochondria by electrospray ionization mass spectrometry using 1,1′,2,2′-tetramyristoyl CL as an internal standard as previously described (n=9/group)^228,229, 230.

[2] = system: mitochondrial permeability transition pore (MPTP); assay: Ca2+ retention capacity (index of MPTP opening) in mitochondria from diet-treated rats, Series 1; type: in vivo, male Wistar rats
Method: as §1, §2

[3] = system: isolated cardiac mitochondria; assay: Cardiac mitochondrial cardiolipin (CL) content and composition by electrospray ionization mass spectrometry; type: in vivo, male Wistar rats; conditions: for total CL content: Series 1, 8 weeks diet, CTRL 10.7±0.8, DHA vs CTRL p<0.08
Method: as §1, with “Following completion of Series 1, a second series of animal studies (Series 2) were performed to assess mitochondrial swelling using a light scattering assay, and the effects of different respiratory substrates on Ca^2+ retention capacity in mitochondria from control and DHA supplemented rats. Animals were treated for 10 weeks and were fed either CTRL or DHA (2.5% of total caloric intake).” left out
Mitochondrial Preparation: Mitochondria were isolated as previously described^228. […] The concentration of mitochondrial protein was measured by the Lowry method using bovine serum albumin as a standard.
as §3

VDAC2 = assay: Western blot of isolated mitochondria, densitometry; type: in vivo, male Wistar rats; conditions: CTRL 1.00 ± 0.15
Method: (§4) Metabolic and Biochemical Parameters: Free fatty acids and triglycerides were assessed in the plasma using commercially available kits (Wako, Richmond, Va.). Mitochondrial proteins were separated by electrophoresis in 4-12% NuPage gels, transferred onto a nitrocellulose membrane, and incubated with specific antibodies to cyclophilin D and voltage-dependent anion channel (VDAC) (1:10,000 and 1:5000, respectively, both from Mitosciences, Eugene, Oreg.). Fluorescence-conjugated secondary antibodies (IRDye 800, 1:10,000; LI-COR Bioscience) were used for incubation before the membranes were scanned with Odyssey® infrared imaging system (LI-COR Bioscience). The digitized image was analyzed with Odyssey® software.

VDAC1 = assay: as above; type: in vivo, male Wistar rats; conditions: CTRL 1.00 ± 0.13
Method: as §4

cyclophilin D = assay: as above; type: in vivo, male Wistar rats; conditions: CTRL 1.00 ± 0.08
Method: as §4

[4] = system: isolated cardiac mitochondria; assay: Mitochondrial respiration (oxygen consumption, Clark-type electrode); type: in vivo, male Wistar rats; conditions: for P:O: measurements without oligomycin; for RCR: ratio of State 3 to State 4 rate with oligomycin; for decrease of state 4 respiration / increase of RCR: pyruvate+malate, vs control, p<0.05; for decrease of state 4 respiration: absence and presence of oligomycin
Method: as §1, §2
Mitochondrial respiration: Mitochondrial oxygen consumption was measured using a Clark-type oxygen electrode (Qubit Systems, Ontario, Canada). Mitochondria (0.25 mg protein) were suspended in 0.5 ml solution consisting of 100 mM KCl, 50 mM MOPS, 5 mM KH2PO4, 1 mM EGTA, and 0.5 mg fatty acid-free bovine serum albumin, at pH 7.4 and 37° C. State 3 (ADP-stimulated) and state 4 (non-phosphorylating) respiration were measured with glutamate+malate (10 and 5 mM, respectively), pyruvate+malate (10 and 5 mM, respectively) and palmitoylcarnitine+malate (40 μM and 5 mM, respectively) to assess respiration through complex I-IV, while succinate+rotenone (10 mM and 7.5 μM, respectively), were used to assess respiration through complex II-IV of the ETC exclusively. State 4 respiration was also measured in the presence of oligomycin to inhibit the mitochondrial ATP synthase.

[5] = Plasma free fatty acids and triglycerides after dietary supplementation (Series 1); type: in vivo, male Wistar rats; conditions: 2.5% of caloric intake, 8 weeks, FIG. 7
Method: as §1, with “Following dietary treatment, rats were anesthetized with isoflurane, blood was drawn, and the heart was harvested for biochemical analysis and mitochondrial isolation.” left out, “Following completion of Series 1, a second series of animal studies (Series 2) were performed to assess mitochondrial swelling using a light scattering assay, and the effects of different respiratory substrates on Ca^2+ retention capacity in mitochondria from control and DHA supplemented rats. Animals were treated for 10 weeks and were fed either CTRL or DHA (2.5% of total caloric intake).” left out
Metabolic and Biochemical Parameters: Free fatty acids and triglycerides were assessed in the plasma using commercially available kits (Wako, Richmond, Va.). […] The digitized image was analyzed with Odyssey® software.

tumor necrosis factor = molecular target: T1, tumor necrosis factor (Homo sapiens, UniProt P01375); conditions: direct cytokine blockade; cited from earlier work
T1 construct: host or cells: heart-failure patients

[6] = glutamate + malate, without CsA, CTRL 83.0±8.7
[7] = mitochondria of diet group with addition of 100 nM CsA

T1 sequence (P01375 77-233 limits assumed): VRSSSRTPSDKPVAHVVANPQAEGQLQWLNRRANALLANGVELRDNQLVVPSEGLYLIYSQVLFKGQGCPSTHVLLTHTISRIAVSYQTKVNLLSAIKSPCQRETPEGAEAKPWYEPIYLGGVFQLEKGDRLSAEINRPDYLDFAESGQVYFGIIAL

## CC/C=C\C/C=C\C/C=C\C/C=C\C/C=C\C/C=C\CCC(=O)O [DHA, docosahexaenoic acid]
[1]
  Mitochondrial phospholipid C18:0: 18.9 ± 0.5 molar percent of total phospholipid fatty acid
  Mitochondrial phospholipid C18:1n7: 3.7 ± 0.2 molar percent of total phospholipid fatty acid
  Mitochondrial phospholipid C18:1n9: 13.0 ± 1.0 molar percent of total phospholipid fatty acid
  Mitochondrial phospholipid C18:2n6: 23.1 ± 1.0 molar percent of total phospholipid fatty acid
  Mitochondrial phospholipid Total ω-3 PUFA: 19.2 ± 0.5 molar percent of total phospholipid fatty acid
  Mitochondrial phospholipid C16:0: 13.3 ± 0.5 molar percent of total phospholipid fatty acid
  Mitochondrial phospholipid C20:3n6: 1.6 ± 0.2 molar percent of total phospholipid fatty acid
  Mitochondrial phospholipid C22:6n3: 14.8 ± 0.6 molar percent of total phospholipid fatty acid
  Mitochondrial phospholipid C20:5n3: 4.4 ± 0.3 molar percent of total phospholipid fatty acid
  Mitochondrial phospholipid C20:4n6: 5.7 ± 0.2 molar percent of total phospholipid fatty acid
[2]; [6]
  Ca2+ required to elicit MPTP: 134.9±11.4 nmol Ca^2+/mg mito prot
[2]; [7]
  Ca2+ required to elicit MPTP: 147.0±17.3 nmol Ca^2+/mg mito prot
[3]
  total CL content: 13.2±0.8 nmols/mg mito prot
VDAC2
  VDAC 2 protein, densitometry: 1.02 ± 0.20
VDAC1
  VDAC 1 protein, densitometry: 1.03 ± 0.22
Cyclophilin D
  Cyclophilin D protein, densitometry: 1.01 ± 0.10
[4]; Glutamate + Malate
  State 4 (+ oligomycin) respiration: 17.2 ± 2.0 ng atoms O · mg^−1 · min^−1
  State 4 (− oligomycin) respiration: 35.3 ± 2.9 ng atoms O · mg^−1 · min^−1
  P:O: 2.37 ± 0.18
  RCR: 7.0 ± 0.9
[4]; Glutamate + Malate, mean ± SEM
  State 3 respiration: 115.2 ± 16.2 ng atoms O · mg^−1 · min^−1
[4]; Palmityl-carnitine + Malate
  State 3 respiration: 265.7 ± 34.4 ng atoms O · mg^−1 · min^−1
  State 4 (+ oligomycin) respiration: 24.9 ± 2.6 ng atoms O · mg^−1 · min^−1
  State 4 (− oligomycin) respiration: 42.6 ± 1.9 ng atoms O · mg^−1 · min^−1
  P:O: 2.50 ± 0.12
  RCR: 11.4 ± 1.8
[4]; Pyruvate + Malate
  State 3 respiration: 240.4 ± 28.7 ng atoms O · mg^−1 · min^−1
  State 4 (+ oligomycin) respiration: 34.8 ± 4.2 ng atoms O · mg^−1 · min^−1
  State 4 (− oligomycin) respiration: 54.0 ± 3.2 ng atoms O · mg^−1 · min^−1
  P:O: 2.48 ± 0.09
  RCR: 7.7 ± 1.0
[4]; Succinate + Rotenone
  State 3 respiration: 325.2 ± 19.6 ng atoms O · mg^−1 · min^−1
  State 4 (+ oligomycin) respiration: 84.7 ± 10.1 ng atoms O · mg^−1 · min^−1
  State 4 (− oligomycin) respiration: 99.3 ± 7.0 ng atoms O · mg^−1 · min^−1
  P:O: 1.48 ± 0.06
  RCR: 4.1 ± 0.4
[4]
  decrease of state 4 respiration: 30%
  increase of RCR: 70%

## CC/C=C\C/C=C\C/C=C\C/C=C\C/C=C\CCCC(=O)O [EPA, eicosapentanoic acid]
[1]
  Mitochondrial phospholipid C18:0: 19.8 ± 0.8 molar percent of total phospholipid fatty acid
  Mitochondrial phospholipid C18:1n7: 4.2 ± 0.2 molar percent of total phospholipid fatty acid
  Mitochondrial phospholipid C18:1n9: 11.8 ± 1.0 molar percent of total phospholipid fatty acid
  Mitochondrial phospholipid C18:2n6: 22.4 ± 0.8 molar percent of total phospholipid fatty acid
  Mitochondrial phospholipid Total ω-3 PUFA: 14.3 ± 0.3 molar percent of total phospholipid fatty acid
  Mitochondrial phospholipid C16:0: 10.8 ± 0.6 molar percent of total phospholipid fatty acid
  Mitochondrial phospholipid C20:3n6: 1.1 ± 0.2 molar percent of total phospholipid fatty acid
  Mitochondrial phospholipid C22:6n3: 8.3 ± 0.2 molar percent of total phospholipid fatty acid
  Mitochondrial phospholipid C20:5n3: 6.0 ± 0.2 molar percent of total phospholipid fatty acid
  Mitochondrial phospholipid C20:4n6: 9.8 ± 0.8 molar percent of total phospholipid fatty acid
[1]; BQL = below the quantifiable limit (limit of detection = 0.41%)
  Mitochondrial phospholipid C16:1: 4.5 ± 1.8 molar percent of total phospholipid fatty acid
[5]
  plasma free fatty acid concentration compared to CTRL: lowered
  plasma triglyceride concentration compared to CTRL: lowered
[2]; [6]
  Ca2+ required to elicit MPTP: 80.8±4.9 nmol Ca^2+/mg mito prot
[2]; [7]
  Ca2+ required to elicit MPTP: 130.6±12.8 nmol Ca^2+/mg mito prot
[3]
  total CL content: 11.1±0.8 nmols/mg mito prot
[3]; Series 1, compared to CTRL, FIG. 9
  CL species containing one ARA and three linoleic acid moieties (ARA1L3CL): decrease
VDAC2
  VDAC 2 protein, densitometry: 0.94 ± 0.17
VDAC1
  VDAC 1 protein, densitometry: 0.87 ± 0.16
Cyclophilin D
  Cyclophilin D protein, densitometry: 1.00 ± 0.08
[4]; Glutamate + Malate
  State 4 (+ oligomycin) respiration: 19.1 ± 3.3 ng atoms O · mg^−1 · min^−1
  State 4 (− oligomycin) respiration: 32.1 ± 4.8 ng atoms O · mg^−1 · min^−1
  P:O: 2.76 ± 0.23
  RCR: 7.0 ± 1.0
[4]; Glutamate + Malate, mean ± SEM
  State 3 respiration: 119.3 ± 13.4 ng atoms O · mg^−1 · min^−1
[4]; Palmityl-carnitine + Malate
  State 3 respiration: 243.7 ± 28.1 ng atoms O · mg^−1 · min^−1
  State 4 (+ oligomycin) respiration: 29.7 ± 3.8 ng atoms O · mg^−1 · min^−1
  State 4 (− oligomycin) respiration: 59.4 ± 7.0 ng atoms O · mg^−1 · min^−1
  P:O: 2.57 ± 0.14
  RCR: 9.5 ± 1.8
[4]; Pyruvate + Malate
  State 3 respiration: 221.2 ± 31.0 ng atoms O · mg^−1 · min^−1
  State 4 (+ oligomycin) respiration: 43.3 ± 5.2 ng atoms O · mg^−1 · min^−1
  State 4 (− oligomycin) respiration: 63.5 ± 6.4 ng atoms O · mg^−1 · min^−1
  P:O: 2.44 ± 0.30
  RCR: 5.1 ± 0.3
[4]; Succinate + Rotenone
  State 3 respiration: 307.2 ± 37.1 ng atoms O · mg^−1 · min^−1
  State 4 (+ oligomycin) respiration: 80.3 ± 11.7 ng atoms O · mg^−1 · min^−1
  State 4 (− oligomycin) respiration: 102.1 ± 11.5 ng atoms O · mg^−1 · min^−1
  P:O: 1.48 ± 0.08
  RCR: 4.1 ± 0.5
[4]
  decrease of state 4 respiration: no effect
  increase of RCR: no effect

## ETANERCEPT
Tumor necrosis factor
  efficacy in HF patients: not effective
